# Laboratory results published in patent US9302999B2, “Substituted triazoles as herbicides” (E. I. DU PONT DE NEMOURS AND COMPANY, priority 2012, dated 2016).
# Key:
# Type in all cases: in vivo
# [1] = system: lambsquarters (Chenopodium album); experiment: Test E pre-/postemergence: lambsquarters; conditions: Preemergence, scale 0 to 100
# Text: (§1) Seeds of plant species selected from corn (Zea mays), soybean (Glycine max), velvetleaf (Abutilon theophrasti), lambsquarters (Chenopodium album), poinsettia, wild (wild poinsettia, Euphorbia heterophylla), pigweed, palmer (palmer pigweed, Amaranthus palmeri), waterhemp (common waterhemp, Amaranthus rudis), smartweed (ladysthumb smartweed, Polygonum persicaria), surinam grass (Brachiaria decumbens), crabgrass, large (large crabgrass, Digitaria sanguinalis), crabgrass, Brazil (Brazilian crabgrass, Digitaria horizontalis), panicum, fall (fall panicum, Panicum dichotomiflorum), foxtail, giant (giant foxtail, Setaria faberii), foxtail, green (green foxtail, Setaria viridis), goosegrass (Eleusine indica), johnsongrass (Sorghum halepense), ragweed (common ragweed, Ambrosia elation), barnyardgrass (Echinochloa crus-galli), sandbur (southern sandbur, Cenchrus echinatus), arrowleaf sida (Sida rhombifolia), ryegrass, Italian (Italian ryegrass, Lolium multiflorum), dayflower, (VA) (Virginia dayflower, Commelina virginica), field bindweed (Convolvulus arvensis), cocklebur (common cocklebur, Xanthium strumarium), morningglory (Ipomoea coccinea), nightshade (eastern black nightshade, Solanum ptycanthum), kochia (Kochia scoparia), nutsedge, yellow (yellow nutsedge, Cyperus esculentus) and beggarticks (hairy beggarticks, Bidens pilosa) were planted into a silt loam soil and treated preemergence with test chemicals formulated in a non-phytotoxic solvent mixture which included a surfactant. At the same time, plants selected from these crop and weed species were planted in pots containing a growing medium comprising spaghnum peat moss, vermiculite, wetting agent and starter nutrients and treated with postemergence applications of some of the test chemicals formulated in the same manner. Plants ranged in height from 2 to 18 cm for postemergence treatments (1- to 4-leaf stage).
# (§2) Treated plants and controls were maintained in a greenhouse for 14 to 21 days, after which time all species were compared to controls and visually evaluated. Plant response ratings, summarized in Table E, are based on a scale of 0 to 100 where 0 is no effect and 100 is complete control. A dash (-) response means no test result.
# [2] = system: pigweed, palmer (palmer pigweed, Amaranthus palmeri); experiment: Test E pre-/postemergence: pigweed, palmer; conditions: Preemergence, scale 0 to 100
# Text: as §1, §2
# [3] = system: ryegrass, Italian (Italian ryegrass, Lolium multiflorum); experiment: Test E pre-/postemergence: ryegrass, Italian; conditions: Preemergence, scale 0 to 100
# Text: as §1, §2
# [4] = system: nightshade (eastern black nightshade, Solanum ptycanthum); experiment: Test E pre-/postemergence: nightshade; conditions: Preemergence, scale 0 to 100
# Text: as §1, §2
# [5] = system: dayflower, VA (Virginia (VA) dayflower, Commelina virginica); experiment: Test F pre-/postemergence: dayflower, VA; conditions: Preemergence
# Text: (§3) Seeds of plant species selected from corn (Zea mays), soybean (Glycine max), velvetleaf (Abutilon theophrasti), lambsquarters (Chenopodium album), poinsettia, wild (wild poinsettia, Euphorbia heterophylla), pigweed, palmer (palmer pigweed, Amaranthus palmeri), waterhemp (common waterhemp, Amaranthus rudis), surinam grass (Brachiaria decumbens), crabgrass, Brazil (Brazilian crabgrass, Digitaria horizontalis), panicum, fall (fall panicum Panicum dichotomiflorum), crabgrass, large (large crabgrass, Digitaria sanguinalis), foxtail, giant (giant foxtail, Setaria faberii), foxtail, green (green foxtail Setaria viridis), goosegrass (Eleusine indica), ragweed (common ragweed, Ambrosia elatior), barnyardgrass (Echinochloa crus-galli), sandbur (southern sandbur, Cenchrus echinatus), arrowleaf sida (Sida rhombifolia), ryegrass, Italian (Italian ryegrass, Lolium multiflorum), dayflower, VA (Virginia (VA) dayflower, Commelina virginica), field bindweed (Convolvulus arvensis), cocklebur (common cocklebur, Xanthium strumarium), morningglory (Ipomoea coccinea), nightshade (eastern black nightshade, Solanum ptycanthum), kochia (Kochia scoparia), nutsedge, yellow (yellow nutsedge, Cyperus esculentus), johnsongrass (Sorghum halepense), smartweed (ladysthumb smartweed, Polygonum persicaria), and beggarticks (hairy beggarticks, Bidens pilosa), were planted into a silt loam soil and treated preemergence with test chemicals formulated in a non-phytotoxic solvent mixture which included a surfactant. At the same time, plants selected from these crop and weed species and also pigweed (Amaranthus retroflexus), waterhemp_RES1 (ALS/Triazine resistant common waterhemp, Amaranthus rudis) and waterhemp_RES2 (ALS/HPPD resistant common waterhemp, Amaranthus rudis) were planted in pots containing a planting medium comprising spaghnum peat moss, vermiculite, wetting agent and starter nutrients treated with postemergence applications of some of the test chemicals formulated in the same manner. Plants ranged in height from 2 to 18 cm for postemergence treatments (1- to 4-leaf stage).
# as §2
# [6] = system: morningglory (Ipomoea coccinea); experiment: Test F pre-/postemergence: morningglory; conditions: Preemergence
# Text: as §3, §2
# [7] = 16 g ai/ha, scale 0 to 100 (0 no effect, 100 complete control)
# [8] = 31 g ai/ha, scale 0 to 100 (0 no effect, 100 complete control)
Compound,Plant response rating: Lambsquarters ([1]; 8 g ai/ha),Plant response rating: Lambsquarters ([1]; 16 g ai/ha),Plant response rating: Lambsquarters ([1]; 31 g ai/ha),Plant response rating: Lambsquarters ([1]; 62 g ai/ha),Plant response rating: Lambsquarters ([1]; 125 g ai/ha),"Plant response rating: Pigweed, Palmer ([2]; 8 g ai/ha)","Plant response rating: Pigweed, Palmer ([2]; 16 g ai/ha)","Plant response rating: Pigweed, Palmer ([2]; 31 g ai/ha)","Plant response rating: Pigweed, Palmer ([2]; 62 g ai/ha)","Plant response rating: Pigweed, Palmer ([2]; 125 g ai/ha)","Plant response rating: Ryegrass, Italian ([3]; 8 g ai/ha)","Plant response rating: Ryegrass, Italian ([3]; 16 g ai/ha)","Plant response rating: Ryegrass, Italian ([3]; 31 g ai/ha)","Plant response rating: Ryegrass, Italian ([3]; 62 g ai/ha)","Plant response rating: Ryegrass, Italian ([3]; 125 g ai/ha)",Plant response rating: Nightshade ([4]; 8 g ai/ha),Plant response rating: Nightshade ([4]; 16 g ai/ha),Plant response rating: Nightshade ([4]; 31 g ai/ha),Plant response rating: Nightshade ([4]; 62 g ai/ha),Plant response rating: Nightshade ([4]; 125 g ai/ha),also measured
"Cc1nn(-c2ccc(F)cc2)nc1Oc1ccnc(C(F)(F)F)c1 [Compound 129, 4-[[2-(4-fluorophenyl)-5-methyl-2H-1,2,3-triazol-4-yl]oxy]-2-(trifluoromethyl)pyridine]",0,0,0,75,98,30,80,100,100,100,0,25,25,40,60,0,0,0,50,60,–
CCCc1nn(-c2ccc(F)cc2)nc1Cc1ccnc(C(F)(F)F)c1 [Compound 153],–,–,–,–,–,–,–,–,–,–,–,–,–,–,–,–,–,–,–,–,"Plant response rating, Dayflower, VA [5, 7]: 5; Plant response rating, Dayflower, VA [5, 8]: 10; Plant response rating, Dayflower, VA ([5]; 62 g ai/ha, scale 0 to 100): 40; Plant response rating, Dayflower, VA ([5]; 125 g ai/ha, scale 0 to 100): 80; Plant response rating, Dayflower, VA ([5]; 250 g ai/ha, scale 0 to 100): 95; Plant response rating, Morningglory [6, 7]: 0; Plant response rating, Morningglory [6, 8]: 30; Plant response rating, Morningglory ([6]; 125 g ai/ha, scale 0 to 100): 65; Plant response rating, Morningglory ([6]; 250 g ai/ha, scale 0 to 100): 65"
"Cc1nn(-c2ccc(F)cc2)nc1Cc1ccnc(C(F)(F)F)c1 [Compound 16, 4-[[2-(4-fluorophenyl)-5-methyl-2H-1,2,3-triazol-4-yl]methyl]-2-(trifluoromethyl)pyridine]",0,0,75,98,98,95,98,98,98,100,0,0,30,50,98,0,0,50,100,100,–
